Test results taken from ChEMBL document CHEMBL1629541, “Synthesis and structure-activity relationships of aza- and diazabiphenyl analogues of the antitubercular drug (6S)-2-nitro-6-{[4-(trifluoromethoxy)benzyl]oxy}-6,7-dihydro-5H-imidazo[2,1-b][1,3]oxazine (PA-824)” (J Med Chem, 2010).
≈ marks a conversion by molar mass, not a printed value.

How the values were obtained:
physchem [1] = details: water, pH 7
Description: Solubility of the compound in water at pH 7.0 by HPLC

[2] = tested on: Mycobacterium tuberculosis; assay: microbe, parasite or virus in culture; details: H37Rv
Description: Antitubercular activity against Mycobacterium tuberculosis H37Rv by LORA method

in vitro [3] = details: CD1, mouse, liver microsomes
Description: Metabolic stability in CD1 mouse liver microsomes assessed as compound remaining after 1 hr

[4] = tested on: Mycobacterium tuberculosis; assay: microbe, parasite or virus in culture; details: H37Rv; remark: listed apart in the source
in vitro [5] = details: human, liver microsomes
Description: Metabolic stability in human liver microsomes assessed as compound remaining after 1 hr

physchem [6] = details: water, pH 1
Description: Solubility of the compound in water at pH 1.0 by HPLC

| SMILES | solubility (physchem [1]) | MIC [2] | remaining at 1 h (in vitro [3]) | MIC [4] | remaining at 1 h (in vitro [5]) | solubility (physchem [6]) |
| --- | --- | --- | --- | --- | --- | --- |
| O=[N+]([O-])c1cn2c(n1)OC[C@@H](OCc1ccnc(-c3ccc(OC(F)(F)F)cc3)c1)C2 | 3.9 µg/mL (≈ 8.94 µM) | 2.4 µM (≈ 1.05 µg/mL) | 31% | 0.035 µM (≈ 0.0153 µg/mL) | 54% |  |
| O=[N+]([O-])c1cn2c(n1)OC[C@@H](OCc1ccc(-c3ccc(C(F)(F)F)cn3)cn1)C2 | 5.9 µg/mL (≈ 14 µM) | 9.6 µM (≈ 4.04 µg/mL) |  | 0.83 µM (≈ 0.35 µg/mL) |  | 442 µg/mL (≈ 1050 µM) |
| O=[N+]([O-])c1cn2c(n1)OC[C@@H](OCc1ccc(-c3ccc(Cl)c(OC(F)(F)F)c3)cn1)C2 | 0.8 µg/mL (≈ 1.7 µM) | 2.3 µM (≈ 1.08 µg/mL) |  | 0.06 µM (≈ 0.0282 µg/mL) |  |  |
| O=[N+]([O-])c1cn2c(n1)OC[C@@H](OCc1ccc(-c3cccc(F)n3)cn1)C2 | 41 µg/mL (≈ 110 µM) | 20 µM (≈ 7.43 µg/mL) |  | 1.4 µM (≈ 0.52 µg/mL) |  |  |
| O=[N+]([O-])c1cn2c(n1)OC[C@@H](OCc1ccc(-c3ccc(C(F)(F)F)nc3)cn1)C2 | 12 µg/mL (≈ 28.5 µM) | 16 µM (≈ 6.74 µg/mL) |  | 0.24 µM (≈ 0.101 µg/mL) |  |  |
| O=[N+]([O-])c1cn2c(n1)OC[C@@H](OCc1ccc(-c3ccc(F)nc3)cn1)C2 | 43 µg/mL (≈ 116 µM) | 19 µM (≈ 7.06 µg/mL) |  | 0.49 µM (≈ 0.182 µg/mL) |  |  |
| O=[N+]([O-])c1cn2c(n1)OC[C@@H](OCc1ccc(-c3cncc(F)c3)cn1)C2 | 130 µg/mL (≈ 350 µM) | 21 µM (≈ 7.8 µg/mL) |  | 2.6 µM (≈ 0.965 µg/mL) |  |  |
| COc1ccc(-c2ccc(CO[C@@H]3COc4nc([N+](=O)[O-])cn4C3)nc2)cn1 | 24 µg/mL (≈ 62.6 µM) | 9.6 µM (≈ 3.68 µg/mL) |  | 0.36 µM (≈ 0.138 µg/mL) |  |  |
| O=[N+]([O-])c1cn2c(n1)OC[C@@H](OCc1ccc(-c3ccncc3F)cn1)C2 | 700 µg/mL (≈ 1890 µM) | 20 µM (≈ 7.43 µg/mL) |  | 3.2 µM (≈ 1.19 µg/mL) |  |  |
| O=[N+]([O-])c1cn2c(n1)OC[C@@H](OCc1ccc(-c3ccnc(F)c3)cn1)C2 | 42 µg/mL (≈ 113 µM) | 14 µM (≈ 5.2 µg/mL) |  | 1.7 µM (≈ 0.631 µg/mL) |  |  |
| O=[N+]([O-])c1cn2c(n1)OC[C@@H](OCc1ccc(-c3ccc(C(F)(F)F)cc3)nc1)C2 | 1.2 µg/mL (≈ 2.85 µM) | 0.53 µM (≈ 0.223 µg/mL) |  | 0.053 µM (≈ 0.0223 µg/mL) |  |  |
| N#Cc1ccc(-c2ccc(CO[C@@H]3COc4nc([N+](=O)[O-])cn4C3)cn2)cc1 | 2.9 µg/mL (≈ 7.68 µM) | 6 µM (≈ 2.26 µg/mL) |  | 0.18 µM (≈ 0.0679 µg/mL) |  |  |
| O=[N+]([O-])c1cn2c(n1)OC[C@@H](OCc1ccc(-c3ccc(OC(F)F)cc3)nc1)C2 | 1.6 µg/mL (≈ 3.82 µM) | 3.4 µM (≈ 1.42 µg/mL) |  | 0.02 µM (≈ 0.00837 µg/mL) |  |  |
| COc1ccc(-c2ccc(CO[C@@H]3COc4nc([N+](=O)[O-])cn4C3)cn2)cc1F | 2.1 µg/mL (≈ 5.25 µM) | 1.9 µM (≈ 0.761 µg/mL) |  | 0.09 µM (≈ 0.036 µg/mL) |  |  |
| O=[N+]([O-])c1cn2c(n1)OC[C@@H](OCc1ccc(-c3ccc(OC(F)(F)F)cc3F)nc1)C2 | 2.2 µg/mL (≈ 4.84 µM) | 1.9 µM (≈ 0.863 µg/mL) |  | 0.047 µM (≈ 0.0214 µg/mL) |  |  |
| O=[N+]([O-])c1cn2c(n1)OC[C@@H](OCc1ccc(-c3ccc(Cl)c(OC(F)(F)F)c3)nc1)C2 | 0.22 µg/mL (≈ 0.467 µM) | 2.4 µM (≈ 1.13 µg/mL) |  | 0.18 µM (≈ 0.0847 µg/mL) |  |  |
| O=[N+]([O-])c1cn2c(n1)OC[C@@H](OCc1ccc(-c3ccc(C(F)(F)F)nc3)nc1)C2 | 7 µg/mL (≈ 16.6 µM) | 17 µM (≈ 7.16 µg/mL) |  | 0.19 µM (≈ 0.0801 µg/mL) |  |  |
| O=[N+]([O-])c1cn2c(n1)OC[C@@H](OCc1ccc(-c3ccc(F)nc3)nc1)C2 | 51 µg/mL (≈ 137 µM) | 13 µM (≈ 4.83 µg/mL) |  | 0.37 µM (≈ 0.137 µg/mL) |  |  |
| COc1ccc(-c2ccc(CO[C@@H]3COc4nc([N+](=O)[O-])cn4C3)cn2)cn1 | 51 µg/mL (≈ 133 µM) | 7.3 µM (≈ 2.8 µg/mL) |  | 0.24 µM (≈ 0.092 µg/mL) |  |  |
| O=[N+]([O-])c1cn2c(n1)OC[C@@H](OCc1ccc(-c3ccc(C(F)(F)F)cc3)nn1)C2 | 5.4 µg/mL (≈ 12.8 µM) | 2.8 µM (≈ 1.18 µg/mL) |  | 0.06 µM (≈ 0.0253 µg/mL) |  |  |

| SMILES | solubility (physchem [1]) | MIC [2] | remaining at 1 h (in vitro [3]) | MIC [4] | remaining at 1 h (in vitro [5]) | solubility (physchem [6]) |
| --- | --- | --- | --- | --- | --- | --- |
| N#Cc1ccc(-c2ccc(CO[C@@H]3COc4nc([N+](=O)[O-])cn4C3)nn2)cc1 | 22 µg/mL (≈ 58.1 µM) | 13 µM (≈ 4.92 µg/mL) |  | 0.36 µM (≈ 0.136 µg/mL) |  |  |
| O=[N+]([O-])c1cn2c(n1)OC[C@@H](OCc1ccc(-c3ccc(F)cc3)nn1)C2 | 8.3 µg/mL (≈ 22.4 µM) | 5.6 µM (≈ 2.08 µg/mL) |  | 0.19 µM (≈ 0.0706 µg/mL) |  |  |
| O=[N+]([O-])c1cn2c(n1)OC[C@@H](OCc1ccc(-c3ccc(OC(F)F)cc3)nn1)C2 | 1.3 µg/mL (≈ 3.1 µM) | 7.5 µM (≈ 3.15 µg/mL) |  | 0.17 µM (≈ 0.0713 µg/mL) |  |  |
| COc1ccc(-c2ccc(CO[C@@H]3COc4nc([N+](=O)[O-])cn4C3)nn2)cc1F | 6.8 µg/mL (≈ 16.9 µM) | 6.6 µM (≈ 2.65 µg/mL) |  | 0.25 µM (≈ 0.1 µg/mL) |  |  |
| O=[N+]([O-])c1cn2c(n1)OC[C@@H](OCc1ccc(-c3ccc(C(F)(F)F)nc3)nn1)C2 | 12 µg/mL (≈ 28.4 µM) | 14 µM (≈ 5.91 µg/mL) |  | 0.55 µM (≈ 0.232 µg/mL) |  |  |
| COc1ccc(-c2ccc(CO[C@@H]3COc4nc([N+](=O)[O-])cn4C3)nn2)cn1 | 34 µg/mL (≈ 88.5 µM) | 20 µM (≈ 7.69 µg/mL) |  | 0.72 µM (≈ 0.277 µg/mL) |  |  |
| O=[N+]([O-])c1cn2c(n1)OC[C@@H](OCc1cnc(-c3ccc(C(F)(F)F)cc3)cn1)C2 | 0.84 µg/mL (≈ 1.99 µM) | 0.97 µM (≈ 0.409 µg/mL) |  | 0.08 µM (≈ 0.0337 µg/mL) |  |  |
| O=[N+]([O-])c1cn2c(n1)OC[C@@H](OCc1cnc(-c3ccc(F)cc3)cn1)C2 | 8.9 µg/mL (≈ 24 µM) | 2 µM (≈ 0.743 µg/mL) |  | 0.085 µM (≈ 0.0316 µg/mL) |  |  |
| O=[N+]([O-])c1cn2c(n1)OC[C@@H](OCc1cnc(-c3ccc(OC(F)F)cc3)cn1)C2 | 5 µg/mL (≈ 11.9 µM) | 1.3 µM (≈ 0.545 µg/mL) |  | 0.2 µM (≈ 0.0839 µg/mL) |  |  |
| O=[N+]([O-])c1cn2c(n1)OC[C@@H](OCc1cnc(-c3ccc(C(F)(F)F)nc3)cn1)C2 | 27 µg/mL (≈ 63.9 µM) | 3.7 µM (≈ 1.56 µg/mL) |  | 0.33 µM (≈ 0.139 µg/mL) |  |  |
| O=[N+]([O-])c1cn2c(n1)OC[C@@H](OCc1ncc(-c3ccc(C(F)(F)F)cc3)cn1)C2 | 2.7 µg/mL (≈ 6.41 µM) | 3.5 µM (≈ 1.47 µg/mL) |  | 0.06 µM (≈ 0.0253 µg/mL) |  |  |
| O=[N+]([O-])c1cn2c(n1)OC[C@@H](OCc1ncc(-c3ccc(F)cc3)cn1)C2 | 50 µg/mL (≈ 135 µM) | 12 µM (≈ 4.46 µg/mL) |  | 0.13 µM (≈ 0.0483 µg/mL) |  |  |
| O=[N+]([O-])c1cn2c(n1)OC[C@@H](OCc1ncc(-c3ccc(OC(F)(F)F)cc3)cn1)C2 |  | 1.9 µM (≈ 0.831 µg/mL) | 87% | 0.11 µM (≈ 0.0481 µg/mL) | 92% | 5.1 µg/mL (≈ 11.7 µM) |
| O=[N+]([O-])c1cn2c(n1)OC[C@@H](OCc1ncc(-c3ccc(OC(F)F)cc3)cn1)C2 | 7.8 µg/mL (≈ 18.6 µM) | 7.4 µM (≈ 3.1 µg/mL) |  | 0.12 µM (≈ 0.0503 µg/mL) |  |  |
| O=[N+]([O-])c1cn2c(n1)OC[C@@H](OCc1ncc(-c3ccc(C(F)(F)F)nc3)cn1)C2 | 85 µg/mL (≈ 201 µM) | 14 µM (≈ 5.91 µg/mL) |  | 0.28 µM (≈ 0.118 µg/mL) |  |  |
| O=[N+]([O-])c1cn2c(n1)OC[C@@H](OCc1cnc(-c3ccc(OC(F)F)cc3)nc1)C2 | 1.1 µg/mL (≈ 2.62 µM) | 4.4 µM (≈ 1.85 µg/mL) |  | 0.13 µM (≈ 0.0545 µg/mL) |  |  |
| O=[N+]([O-])c1cn2c(n1)OC[C@@H](OCc1ccc(-c3ncc(C(F)(F)F)cc3Cl)cc1)C2 | 3.3 µg/mL (≈ 7.26 µM) | 1 µM (≈ 0.455 µg/mL) | 80% | 0.025 µM (≈ 0.0114 µg/mL) | 86% | 2 µg/mL (≈ 4.4 µM) |
| O=[N+]([O-])c1cn2c(n1)OC[C@@H](OCc1ccc(-c3ccc(F)cn3)cc1)C2 |  | 1.3 µM (≈ 0.481 µg/mL) | 61% | 0.035 µM (≈ 0.013 µg/mL) | 83% | 275 µg/mL (≈ 743 µM) |
| O=[N+]([O-])c1cn2c(n1)OC[C@@H](OCc1ccc(-c3ccc(F)nc3)cc1)C2 | 8 µg/mL (≈ 21.6 µM) | 2.1 µM (≈ 0.778 µg/mL) | 79% | 0.095 µM (≈ 0.0352 µg/mL) | 88% | 10 µg/mL (≈ 27 µM) |
| O=[N+]([O-])c1cn2c(n1)OC[C@@H](OCc1ccc(-c3ccc(OC(F)F)nc3)cc1)C2 | 3.2 µg/mL (≈ 7.65 µM) | 0.66 µM (≈ 0.276 µg/mL) | 75% | 0.045 µM (≈ 0.0188 µg/mL) | 95% |  |
